Measurements: ChEMBL document CHEMBL4402538, “Mycobacterial tryptophan biosynthesis: A promising target for tuberculosis drug development?” (Bioorg Med Chem Lett, 2019)
In brackets after ≈: the same amount, converted by molar mass.

Key:
[1] = tested on: Mycobacterium tuberculosis; experiment: Antimycobacterial activity against Mycobacterium tuberculosis H37Rv in presence of tryptophan after 14 days by broth microdilution method; format: functional; conditions: 336 h
[2] = Inhibition of Mycobacterium tuberculosis Anthranilate phosphoribosyltransferase expressed in Escherichia coli BL21(DE3) pRIL cells using PRPP as substrate in presence of PRAI-InGPS by fluorescence-based assay
[3] = tested on: Mycobacterium tuberculosis; experiment: Antitubercular activity against Mycobacterium tuberculosis H37Rv; format: functional
[4] = Cytotoxicity against human HepG2 cells after 48 hrs by CellTiter Glo assay; format: cell-based
[5] = Intrinsic clearance in mouse liver microsomes incubated for 30 mins and measured up to 30 mins by LC-MS/MS analysis; format: ADME, Microsome; conditions: 0.5 h
[6] = tested on: Mycobacterium tuberculosis; experiment: Antimycobacterial activity against wild-type Mycobacterium tuberculosis H37Rv incubated for 2 weeks; format: functional; conditions: 336 h
[7] = tested on: Mycobacterium tuberculosis; experiment: Antimycobacterial activity against pan-sensitive Mycobacterium tuberculosis HN-878 incubated for 2 weeks; format: functional; conditions: HN-878, 336 h
[8] = tested on: Mycobacterium tuberculosis; experiment: Antimycobacterial activity against pan-sensitive Mycobacterium tuberculosis CI-11 incubated for 2 weeks; format: functional; conditions: CI-11, 336 h
[9] = tested on: Mycobacterium tuberculosis; experiment: Antimycobacterial activity against pan-sensitive Mycobacterium tuberculosis AS2 incubated for 2 weeks; format: functional; conditions: AS2, 336 h
[10] = tested on: Mycobacterium tuberculosis; experiment: Antimycobacterial activity against pan-sensitive Mycobacterium tuberculosis AS4 incubated for 2 weeks; format: functional; conditions: AS4, 336 h
[11] = tested on: Mycobacterium tuberculosis; experiment: Antimycobacterial activity against pan-sensitive Mycobacterium tuberculosis CI-5 incubated for 2 weeks; format: functional; conditions: CI-5, 336 h
[12] = tested on: Mycobacterium tuberculosis; experiment: Antimycobacterial activity against pan-sensitive Mycobacterium tuberculosis CDC1551 incubated for 2 weeks; format: functional; conditions: CDC1551, 336 h
[13] = tested on: Mycobacterium tuberculosis; experiment: Antimycobacterial activity against pan-sensitive Mycobacterium tuberculosis CI-4 incubated for 2 weeks; format: functional; conditions: CI-4, 336 h
[14] = Cytotoxicity against human HepG2 cells; format: cell-based
[15] = Intrinsic clearance in mouse liver microsomes at 1 uM in presence of NADPH measured up to 60 mins by LC-MS/MS analysis; format: ADME, Microsome; conditions: read-out: CLH
[16] = tested on: Mycobacterium tuberculosis; experiment: Antimycobacterial activity against wild-type Mycobacterium tuberculosis H37Rv infected in mouse J774 cells assessed as reduction in bacterial growth incubated for 3 days relative to control; format: functional
Mycobacterium marinum = experiment: Antimycobacterial activity against Mycobacterium marinum infected in zebra fish embryos assessed as reduction in bacterial growth at 15 to 30 uM incubated for 5 days relative to control; format: functional
[17] = tested on: Mycobacterium tuberculosis; experiment: Antimycobacterial activity against Mycobacterium tuberculosis in absence of tryptophan by Alamar Blue assay; format: functional
[18] = tested on: Mycobacterium tuberculosis; experiment: Antitubercular activity against Mycobacterium tuberculosis infected in mouse assessed as reduction in bacterial load in infected mouse spleen at 200 mg/kg administered 8 days post infection and measured at 2 week relative to control; format: functional
[19] = tested on: Mycobacterium tuberculosis H37Rv; experiment: Inhibition of Tryptophan synthase alpha in Mycobacterium tuberculosis H37Rv assessed as bactericidal activity incubated for 4 weeks by agar dilution method
[20] = tested on: Mycobacterium tuberculosis; experiment: Antitubercular activity against Mycobacterium tuberculosis H37Rv ATCC 27294 after 10 days; format: functional; conditions: H37Rv ATCC 27294, 240 h
[21] = Cytotoxicity against human HepG2 cells after 24 hrs by CellTiter 96 AQueous One Solution Cell Proliferation assay; format: cell-based
[22] = Oral bioavailability in CD-1 mouse at 100 mg/kg measured up to 24 hrs; format: ADME, organism-based; conditions: in vivo
[23] = tested on: Mycobacterium tuberculosis; experiment: Antitubercular activity against Mycobacterium tuberculosis H37Rv infected in BALB/c mouse assessed as reduction in bacterial load in infected mouse spleen at 100 mg/kg, po administered 6 days per week for 4 weeks relative to control; format: functional
[24] = tested on: Mycobacterium tuberculosis; experiment: Antimycobacterial activity against Mycobacterium tuberculosis H37Rv infected in C57BL/6 mouse assessed as reduction in colony forming unit at 350 mg/kg, po administered for 8 consecutive days starting from day 1 post infection relative to control; format: functional

For Cc1cccc(NC(=O)COC(=O)CCc2c[nH]c3ccccc23)c1, the MIC90 [1] was < 64 µM.
For O=C(O)c1ccccc1Nc1ccccc1C(=O)O, the Ki [2] was 1.5 µM.
For O=S1(=O)C[C@H](O)[C@@H](N2CCC(c3ccccc3Cl)CC2)C1, the MIC [3] was 0.5 µM (≈ 0.165 µg/mL), the CC50 at 48 h [4] was > 100 µM and the CLH [5] was 73.7 mL/min/g.
In the case of N#C[C@@H]1N[C@@H](CO)[C@H]1c1ccc(-c2ccccc2F)cc1, the MIC90 [6] is reported as 3 µM (≈ 0.847 µg/mL), the MIC90 [7] is reported as 3 µM (≈ 0.847 µg/mL) and the MIC90 [8] is reported as 1.6 µM (≈ 0.452 µg/mL). The MIC90 [9] was 3 µM (≈ 0.847 µg/mL), the MIC90 [10] was 3 µM (≈ 0.847 µg/mL) and the MIC90 [11] was 3 µM (≈ 0.847 µg/mL). For the same molecule, the MIC90 [12] was 3 µM (≈ 0.847 µg/mL), the MIC90 [13] was 1.6 µM (≈ 0.452 µg/mL) and the CC50 [14] was > 100 µM. For the same molecule, the microsomal CLint at 1 µM [15] was 336 µL/min/mg, the “fold change (FC)” value [16] was 8 and the “log(activity)” value (Mycobacterium marinum) was 1.5.
In the case of Nc1cccc(F)c1C(=O)O, the MIC [17] is reported as 5 µM (≈ 0.776 µg/mL) and the “fold change (FC)” value [18] is reported as 10.
In the case of CNS(=O)(=O)c1ccc2c(c1)CCN2C(=O)c1ccccc1F, the CC50 at 48 h [4] is reported as > 100 µM and the CLH [5] is reported as 39.5 mL/min/g.
Nc1ccc(F)cc1C(=O)O showed an MIC [17] of 5 µM (≈ 0.776 µg/mL).
With O=S1(=O)C[C@H](O)[C@@H](N2CCN(c3ccccc3Cl)CC2)C1 the CC50 at 48 h [4] was > 50 µM and the CLH [5] was 15.7 mL/min/g.
NC(=O)c1ccc(CNC(=O)c2cc(-c3cccc(Cl)c3)on2)cc1 showed an MIC [19] of 6 µg/mL (≈ 16.9 µM).
For O=C(O)CCc1c[nH]c2ccccc12 [INDOLYLPROPIONIC ACID], the MIC50 [20] was 68 µM (≈ 12.9 µg/mL), the CC50 at 24 h [21] was > 1000 µM and the bioavailability [22] was 30 to 33%. For the same molecule, the “fold change (FC)” value [23] was 7.
With CNS(=O)(=O)c1ccc2c(c1)CCN2C(=O)c1ccc(C)s1 the CC50 at 48 h [4] was > 100 µM and the CLH [5] was 27.1 mL/min/g.
With O=S1(=O)C[C@H](O)[C@@H](N2CCN(c3ccc(F)cc3Cl)CC2)C1 the MIC [3] was 2.25 µM (≈ 0.785 µg/mL), the CC50 at 48 h [4] was > 100 µM and the CLH [5] was < 0.5 mL/min/g. The “log(activity)” value [24] was 1.4.
